Patent US9987287B2, “Orally disintegrating solid dosage unit containing an estetrol component” (Donesta Bioscience B.V., priority 2013, dated 2018)

What was measured:
[1] = Dissolution into saliva, anhydrous vs monohydrate; format: physicochemical; conditions: compared with estetrol monohydrate
estrogen receptors = conditions: in vitro; cited from earlier work
[2] = system: DMBA mammary tumour model; conditions: extent and dose level similar to tamoxifen and to ovariectomy; cited from earlier work
[3] = target: T1, sex hormone binding globulin (SHBG) (Homo sapiens, UniProt P04278); conditions: cited from earlier work
T1 sequence (P04278 30-402): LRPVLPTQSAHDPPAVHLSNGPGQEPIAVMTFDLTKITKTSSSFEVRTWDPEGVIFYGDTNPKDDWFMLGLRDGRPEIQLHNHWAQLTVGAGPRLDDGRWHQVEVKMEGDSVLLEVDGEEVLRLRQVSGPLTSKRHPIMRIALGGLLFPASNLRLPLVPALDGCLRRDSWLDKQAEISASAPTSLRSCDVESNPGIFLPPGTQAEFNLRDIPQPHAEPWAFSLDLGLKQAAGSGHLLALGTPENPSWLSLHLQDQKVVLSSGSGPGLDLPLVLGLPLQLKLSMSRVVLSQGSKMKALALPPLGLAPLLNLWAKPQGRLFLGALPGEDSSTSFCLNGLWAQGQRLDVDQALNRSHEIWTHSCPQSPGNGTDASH

[4] = dose-dependent; cited from earlier work
[5] = humans; cited from earlier work
[6] = system: human breast cancer cells; conditions: in the presence of 17β-estradiol, in vitro; cited from earlier work
[7] = Randomized, open-label, single dose, two-period, cross-over pharmacokinetic study, sublingual vs oral estetrol; format: in vivo, healthy female postmenopausal volunteers; conditions: 10 mg single dose
Method: A randomized, open-label, single dose, two-period, cross-over, pharmacokinetic study is conducted to compare sublingual bioavailability of 10 mg estetrol administered in two 100 mg tablets (each containing 5 mg estetrol and having the same composition as the tablets described in Example 7) with oral availability of estetrol contained in a 83 mg tablet containing 10 mg estetrol. These tablets are administered sublingually and orally to healthy female postmenopausal volunteers under fasting conditions.
Twelve healthy postmenopausal female subjects are selected on the basis of the following criteria: Caucasian race, age of 45-65 years (inclusive), nonsmokers or past smokers (at least 6 months before dosing), body-mass index (BMI)=18.5 to 30 kg/m^2 (inclusive at the time of the screening).
At the start of the first and the second period of the study, between 07:00 am and 07:28 am, 6 subjects receive a single dose of the sublingual formulation of estetrol by administering two estetrol tablets (tablet weight 100 mg; 5 mg estetrol each) and 6 subjects receive a single oral dose of the oral estetrol formulation by administering one estetrol tablet (tablet weight 83 mg; 10 mg estetrol), ingested together with 200 ml water.
Subjects are required to fast for at least 10 hours prior to tablet administration and for at least 4 hours after administration. Drinking of water or beverages is not permitted within 1 hour before the drug administration. Subjects receive 200 ml of water 1 hour prior to and 2 hours after tablet administration. Subjects are free to drink water and fruit tea from 4 hours following the tablet administration. Standardized meals are provided 10.5 hours before and 4, 6, 9, and 13 hours after tablet administration.
The estetrol concentration in the collected blood samples is determined by means of HPLC/MS/MS. The concentrations of glucuronided estetrol (D-ring) in the urine samples is also determined with the help of HPLC/MS/MS.

production of SHBG = conditions: in vitro; cited from earlier work

| Hygroscopicity | SMILES | Rate of dissolution into saliva [1] | Binding selectivity to estrogen receptors (estrogen receptors) | Tumour development in DMBA mammary tumour model [2] | Binding to SHBG [3] | Estrogenic effects in rat models [4] | Oral bioavailability [5] | Terminal elimination half-life [5] | Effect in human breast cancer cells [6] | Bioavailability of sublingually administered estetrol versus orally administered estetrol ([7]; fasting, sublingual two 100 mg tablets (5 mg each, composition of Example 7) vs oral 83 mg tablet) | Onset of bioavailability, sublingual versus oral ([7]; fasting, sublingual two 100 mg tablets vs oral 83 mg tablet) | Impact on a liver function parameter, sublingual ([7]; sublingual tablets vs oral tablet) | Stimulation of SHBG production (production of SHBG) |
| --- | --- | --- | --- | --- | --- | --- | --- | --- | --- | --- | --- | --- | --- |
| highly hygroscopic | C[C@]12CC[C@@H]3c4ccc(O)cc4CC[C@H]3[C@@H]1[C@@H](O)[C@@H](O)[C@@H]2O [Anhydrous estetrol, estetrol] | dissolves more rapidly into saliva than estetrol monohydrate | – | – | – | – | – | – | – | – | – | – | – |
| – | C[C@]12CC[C@@H]3c4ccc(O)cc4CC[C@H]3[C@@H]1[C@@H](O)[C@@H](O)[C@@H]2O [estetrol, 1,3,5 (10)-estratrien-3,15α,16α,17β-tetrol] | – | binds highly selective to the estrogen receptors with preference for the ERα form of the receptor | prevented tumour development | does not bind | exhibited estrogenic effects on the vagina, the uterus (both myometrium and endometrium), body weight, bone mass, bone strength, hot flushes and on ovulation (inhibition) | high and dose-proportional | about 28 hours | anti-estrogenic effect | comparable or even superior to orally administered estetrol | earlier bioavailability compared to orally administered estetrol | less impact on a liver function parameter | does not stimulate the production of SHBG |
